According to ChEMBL document CHEMBL1811857, “Targeting HIV entry through interaction with envelope glycoprotein 120 (gp120): synthesis and antiviral evaluation of 1,3,5-triazines with aromatic amino acids” (J Med Chem, 2011):
Calls of active or inactive are those of the source. No cut-off for these calls is given here.

How the values were obtained:
[1] = tested on: Human immunodeficiency virus 1; test: Antiviral activity against HIV1 3B infected in human CEM cells assessed as inhibition of virus-induced cytopathicity after 4 days; format: functional, organism-based; conditions: Human immunodeficiency virus 1, 3B, CCRF-CEM, 96 h
CCRF-CEM = test: Cytotoxicity against human CEM cells after 4 days by Coulter counter analysis; format: cell-based; conditions: 96 h, read-out: EC50 (the source's name)
[2] = tested on: Human immunodeficiency virus 1; test: Binding affinity to HIV1 3B recombinant gp-120 at 12.5 uM after 5 mins by surface plasmon resonance analysis
[3] = tested on: Human immunodeficiency virus 2; test: Antiviral activity against HIV2 ROD infected in human CEM cells assessed as inhibition of virus-induced cytopathicity after 4 days; format: functional, organism-based; conditions: Human immunodeficiency virus 2, ISOLATE ROD, CCRF-CEM, 96 h
[4] = tested on: Human immunodeficiency virus 1; test: Binding affinity to HIV1 3B recombinant gp-120 at 50 uM after 5 mins by surface plasmon resonance analysis
[5] = Solubility of the compound at >10 uM; format: physicochemical
PBMC [6] = test: Cytotoxicity against human PBMC at 50 uM after 3 days; format: cell-based; conditions: 72 h
[7] = tested on: Human immunodeficiency virus 1; test: Binding affinity to HIV1 3B recombinant gp-120 at 12.5 uM after 5 mins by surface plasmon resonance analysis in presence of […]
[8] = Binding affinity to HIV1 3B recombinant gp-120 after 5 mins using low density (792 RU) sensor chip by surface plasmon resonance analysis; set-up: species or system Human immunodeficiency virus 1
PBMC [9] = test: Induction of CD25 expression in human PBMC after 3 days by FACS analysis; format: functional, cell-based
[10] = Binding affinity to HIV1 ADA recombinant gp-120 after 5 mins using low density (792 RU) sensor chip by surface plasmon resonance analysis; set-up: species or system Human immunodeficiency virus 1
PBMC [11] = test: Mitogenic activity in human PBMC after 3 days; format: functional, cell-based
[12] = Binding affinity to HIV1 3B recombinant gp-120 after 5 mins using high density (10400 RU) sensor chip by surface plasmon resonance analysis; set-up: species or system Human immunodeficiency virus 1
PBMC [13] = test: Induction of HLA-DR expression in human PBMC after 3 days by FACS analysis; format: functional, cell-based
[14] = tested on: Human immunodeficiency virus 1; test: Antiviral activity against HIV1 3a-L infected in human PBMC cells assessed as inhibition of virus-induced cytopathicity after 4 days; format: functional, organism-based; conditions: Human immunodeficiency virus 1, 3a-L, 96 h
PBMC [15] = test: Induction of CD69 expression in human PBMC after 3 days by FACS analysis; format: functional, cell-based

Compound	EC50 [1] [µM]	CC50 (CCRF-CEM) [µM]	EC50 [3] [µM]	also measured
CCc1c(CNc2nc(N[C@@H](Cc3c[nH]c4ccccc34)C(=O)O)nc(N[C@H](Cc3c[nH]c4ccccc34)C(=O)O)n2)c(CC)c(CNc2nc(N[C@@H](Cc3c[nH]c4ccccc34)C(=O)O)nc(N[C@H](Cc3c[nH]c4ccccc34)C(=O)O)n2)c(CC)c1CNc1nc(N[C@@H](Cc2c[nH]c3ccccc23)C(=O)O)nc(N[C@H](Cc2c[nH]c3ccccc23)C(=O)O)n1	19	> 250	22	Activity [2]: Active
O=C(O)[C@H](Cc1ccccc1)Nc1nc(N[C@@H](Cc2ccccc2)C(=O)O)nc(N2CCN(c3nc(N[C@@H](Cc4ccccc4)C(=O)O)nc(N[C@@H](Cc4ccccc4)C(=O)O)n3)CC2)n1	106	> 250	121	–
O=C(O)[C@H](Cc1c[nH]c2ccccc12)Nc1nc(NCc2ccccc2)nc(N[C@@H](Cc2c[nH]c3ccccc23)C(=O)O)n1	–	–	–	Activity [4]: inactive
O=C(O)[C@H](Cc1ccc(O)cc1)Nc1nc(N[C@@H](Cc2ccc(O)cc2)C(=O)O)nc(N2CCN(c3nc(N[C@@H](Cc4ccc(O)cc4)C(=O)O)nc(N[C@@H](Cc4ccc(O)cc4)C(=O)O)n3)CC2)n1	≥ 250	> 250	≥ 250	–
O=C(O)[C@H](Cc1ccccc1)Nc1nc(NCCOCCOCCNc2nc(N[C@@H](Cc3ccccc3)C(=O)O)nc(N[C@H](Cc3ccccc3)C(=O)O)n2)nc(N[C@@H](Cc2ccccc2)C(=O)O)n1	≥ 250	> 250	≥ 250	–
O=C(O)[C@H](Cc1ccccc1)Nc1nc(NCCN(CCNc2nc(N[C@@H](Cc3ccccc3)C(=O)O)nc(N[C@H](Cc3ccccc3)C(=O)O)n2)CCNc2nc(N[C@@H](Cc3ccccc3)C(=O)O)nc(N[C@H](Cc3ccccc3)C(=O)O)n2)nc(N[C@H](Cc2ccccc2)C(=O)O)n1	65	> 250	216	–
CN[C@@H]1[C@H](O[C@@H]2OC[C@@H](O)[C@H](O)[C@H]2O)[C@@H](O)[C@H](O[C@H]2c3cc(C)c(C(=O)N[C@H](C)C(=O)O)c(O)c3-c3c(cc4c(c3O)C(=O)c3cc(OC)cc(O)c3C4=O)[C@@H]2O)O[C@@H]1C [PRADIMICIN A]	5.2	> 50	5.9	–
O=C(O)[C@H](Cc1ccccc1)Nc1nc(NCc2cccc(CNc3nc(N[C@@H](Cc4ccccc4)C(=O)O)nc(N[C@@H](Cc4ccccc4)C(=O)O)n3)c2)nc(N[C@@H](Cc2ccccc2)C(=O)O)n1	> 10	> 10	> 10	solubility [5]: Insoluble
O=C(O)[C@H](Cc1ccc(O)cc1)Nc1nc(NCc2ccccc2)nc(N[C@@H](Cc2ccc(O)cc2)C(=O)O)n1	–	–	–	Activity [4]: inactive
O=C(O)[C@H](Cc1ccc(O)cc1)Nc1nc(NCCOCCOCCNc2nc(N[C@@H](Cc3ccc(O)cc3)C(=O)O)nc(N[C@H](Cc3ccc(O)cc3)C(=O)O)n2)nc(N[C@@H](Cc2ccc(O)cc2)C(=O)O)n1	> 250	> 250	> 250	–
CCc1c(CNc2nc(N[C@@H](Cc3ccc(O)cc3)C(=O)O)nc(N[C@@H](Cc3c[nH]c4ccccc34)C(=O)O)n2)c(CC)c(CNc2nc(N[C@@H](Cc3ccc(O)cc3)C(=O)O)nc(N[C@@H](Cc3c[nH]c4ccccc34)C(=O)O)n2)c(CC)c1CNc1nc(N[C@@H](Cc2ccc(O)cc2)C(=O)O)nc(N[C@@H](Cc2c[nH]c3ccccc23)C(=O)O)n1	26	> 250	24	Activity [2]: Active
CCc1c(CNc2nc(N[C@@H](Cc3ccc(O)cc3)C(=O)O)nc(N[C@@H](Cc3ccc(O)cc3)C(=O)O)n2)c(CC)c(CNc2nc(N[C@@H](Cc3ccc(O)cc3)C(=O)O)nc(N[C@@H](Cc3ccc(O)cc3)C(=O)O)n2)c(CC)c1CNc1nc(N[C@@H](Cc2ccc(O)cc2)C(=O)O)nc(N[C@@H](Cc2ccc(O)cc2)C(=O)O)n1	22	> 250	22	Activity (PBMC [6]): Non-toxic; Activity [7]: Active; Kd [8]: 1.97 µM; Activity (PBMC [9]): inactive; Kd [10]: 1.71 µM; Activity (PBMC [11]): inactive; Activity [4]: Active; Kd [12]: 2.61 µM; Activity (PBMC [13]): inactive; Activity [2]: Active; EC50 [14]: 20 µM; Activity (PBMC [15]): inactive
O=C(O)[C@H](Cc1ccc(O)cc1)Nc1nc(NCc2cccc(CNc3nc(N[C@@H](Cc4ccc(O)cc4)C(=O)O)nc(N[C@@H](Cc4ccc(O)cc4)C(=O)O)n3)c2)nc(N[C@@H](Cc2ccc(O)cc2)C(=O)O)n1	148	> 250	80	Activity [4]: Active
O=C(O)[C@H](Cc1c[nH]c2ccccc12)Nc1nc(NCCOCCOCCNc2nc(N[C@@H](Cc3c[nH]c4ccccc34)C(=O)O)nc(N[C@H](Cc3c[nH]c4ccccc34)C(=O)O)n2)nc(N[C@@H](Cc2c[nH]c3ccccc23)C(=O)O)n1	112	> 250	120	–
O=C(O)[C@H](Cc1ccc(O)cc1)Nc1nc(NCCN(CCNc2nc(N[C@@H](Cc3ccc(O)cc3)C(=O)O)nc(N[C@H](Cc3ccc(O)cc3)C(=O)O)n2)CCNc2nc(N[C@@H](Cc3ccc(O)cc3)C(=O)O)nc(N[C@H](Cc3ccc(O)cc3)C(=O)O)n2)nc(N[C@H](Cc2ccc(O)cc2)C(=O)O)n1	≥ 250	> 250	≥ 250	–
CCc1c(CNc2nc(N[C@@H](Cc3c[nH]c4ccccc34)C(=O)O)nc(N[C@@H](Cc3c[nH]c4ccccc34)C(=O)O)n2)c(CC)c(CNc2nc(N[C@@H](Cc3c[nH]c4ccccc34)C(=O)O)nc(N[C@@H](Cc3c[nH]c4ccccc34)C(=O)O)n2)c(CC)c1CNc1nc(N[C@@H](Cc2c[nH]c3ccccc23)C(=O)O)nc(N[C@@H](Cc2c[nH]c3ccccc23)C(=O)O)n1	16	> 250	22	Activity (PBMC [6]): Non-toxic; Activity [7]: Active; Kd [8]: 1.61 µM; Activity (PBMC [9]): inactive; Kd [10]: 2.51 µM; Activity (PBMC [11]): inactive; Activity [4]: Active; Kd [12]: 2.61 µM; Activity (PBMC [13]): inactive; Activity [2]: Active; EC50 [14]: 20 µM; Activity (PBMC [15]): inactive
O=C(O)C[C@H](Nc1nc(NCCN(CCNc2nc(N[C@@H](CC(=O)O)C(=O)O)nc(N[C@@H](Cc3c[nH]c4ccccc34)C(=O)O)n2)CCNc2nc(N[C@@H](Cc3c[nH]c4ccccc34)C(=O)O)nc(N[C@H](CC(=O)O)C(=O)O)n2)nc(N[C@@H](Cc2c[nH]c3ccccc23)C(=O)O)n1)C(=O)O	216	> 250	> 250	–
CCc1c(CNc2nc(NCCc3c[nH]c4ccccc34)nc(N[C@@H](Cc3c[nH]c4ccccc34)C(=O)O)n2)c(CC)c(CNc2nc(NCCc3c[nH]c4ccccc34)nc(N[C@@H](Cc3c[nH]c4ccccc34)C(=O)O)n2)c(CC)c1CNc1nc(NCCc2c[nH]c3ccccc23)nc(N[C@@H](Cc2c[nH]c3ccccc23)C(=O)O)n1	> 10	> 10	> 10	solubility [5]: Insoluble; Activity [2]: Active
CN[C@@H]1[C@H](O[C@@H]2O[C@H](CO)[C@@H](O)[C@H](OS(=O)(=O)O)[C@H]2O)[C@@H](O)[C@H](O[C@H]2c3cc(C)c(C(=O)N[C@H](C)C(=O)O)c(O)c3-c3c(cc4c(c3O)C(=O)c3cc(OC)cc(O)c3C4=O)[C@@H]2O)O[C@@H]1C [PRADIMICIN S]	–	> 250	–	–
CCc1c(CNc2nc(N[C@@H](CC(=O)O)C(=O)O)nc(N[C@@H](Cc3c[nH]c4ccccc34)C(=O)O)n2)c(CC)c(CNc2nc(N[C@@H](CC(=O)O)C(=O)O)nc(N[C@@H](Cc3c[nH]c4ccccc34)C(=O)O)n2)c(CC)c1CNc1nc(N[C@@H](CC(=O)O)C(=O)O)nc(N[C@@H](Cc2c[nH]c3ccccc23)C(=O)O)n1	18	> 250	33	Activity [2]: Active
O=C(O)[C@H](Cc1c[nH]c2ccccc12)Nc1nc(NCCN(CCNc2nc(N[C@@H](Cc3c[nH]c4ccccc34)C(=O)O)nc(N[C@H](Cc3c[nH]c4ccccc34)C(=O)O)n2)CCNc2nc(N[C@@H](Cc3c[nH]c4ccccc34)C(=O)O)nc(N[C@H](Cc3c[nH]c4ccccc34)C(=O)O)n2)nc(N[C@H](Cc2c[nH]c3ccccc23)C(=O)O)n1	20	> 250	65	–
